{"source": "patent US20260216277A1", "about": "“TOPICAL COMPOSITIONS AND METHODS FOR TREATING ALOPECIA” (priority 2023, published 2026)", "origin": "cited, not measured here", "tested_on": "radiation-induced alopecia", "settings": "whole brain radiotherapy"}
{"smiles": "CC1(C)CC(O)CC(C)(C)N1[O]", "note": "[Tempol, 4-hydroxy-2,2,6,6-tetramethylpiperidine-1-oxyl]", "values": [{"measurement": "Safety and tolerability of topical application to the scalp before radiation", "result": "relatively safe and well tolerated"}]}
